# Assay results from patent publication US6653309B1, “Inhibitors of IMPDH enzyme technical field of the invention” (Vertex Pharmaceuticals Incorporated, priority 1999, dated 2003).
# Target: IMPDH human type II (Homo sapiens, UniProt P12268)
# Test: IMPDH Activity Inhibition Assay
# Format: biochemical
# Conditions: spectrophotometric NADH formation at 340 nm, 37° C., tight-binding equation of Henderson
# Method: IMP dehydrogenase activity was assayed following an adaptation of the method first reported by Magasanik. [B. Magasanik et al., J. Biod. Chem., 226, p. 339 (1957), the disclosure of which is herein incorporated by reference]. Enzyme activity was measured spectrophotometrically, by monitoring the increase in absorbance at 340 nm due to the formation of NADH (ε340 is 6220 M^−1 cm^−1). The reaction mixture contained 0.1 M Tris pH 8.0, 0.1 M KCl, 3 mM EDTA, 2 mM DTT, […] and enzyme (IMPDH human type II) at a concentration of 15 to 50 nM. This solution is incubated at 37° C. for 10 minutes. The reaction is started by adding NAD to a final concentration of […] and the initial rate is measured by following the linear increase in absorbance at 340 nm for 10 minutes. For reading in a standard spectrophotometer (path length 1 cm) the final volume in the cuvette is 1.0 ml. The assay has also been adapted to a 96 well microtiter plate format; in this case the concentrations of all the reagents remain the same and the final volume is decreased to 200 μl.
# For the analysis of inhibitors, the compound in question is dissolved in DMSO to a final concentration of 20 mM and added to the initial assay mixture for preincubation with the enzyme at a final volume of 2-5% (v/v). The reaction is started by the addition of NAD, and the initial rates measured as above. Ki determinations are made by measuring the initial, velocities in the presence of varying amounts of inhibitor and fitting the data using the tight-binding equation of Henderson (Henderson, P. J. F. (1972) Biochem. J. 127, 321].
row,Structure (SMILES),Ki [µM]
1,C=CCN(C(=O)c1cc2ccccc2cc1O)c1ccccc1OC [Compound 106],10 to 20
2,O=C(Nc1ccccc1Cl)c1cc2ccccc2cc1O [Compound 155],10 to 20
3,O=C(Nc1ccccc1F)c1cc2ccccc2cc1O [Compound 162],10 to 20
4,CCC(C)c1ccc(OC)c(NC(=O)c2cc3ccccc3cc2O)c1 (stereo not shown) [Compound 164],< 10
5,O=C(Nc1cccc(OC(F)(F)F)c1)c1ccc2ccccc2c1 [Compound 143],< 10
6,COc1ccc(C(=O)Nc2ccccc2OC)c(O)c1 [Compound 150],10 to 20
7,COc1ccccc1NC(=O)c1ccc2ccccc2c1O [Compound 146],10 to 20
8,COc1cc(NC(=O)c2cc3ccccc3cc2O)ccc1-c1cnco1 [Compound 126],< 10
9,COc1ccccc1NC(=O)c1cccc(OC)c1O [Compound 157],10 to 20
10,CCCCC(=O)Oc1cc2ccc(Br)cc2cc1C(=O)Nc1ccccc1OC [Compound 153],< 10
11,CCCC(=O)Oc1cc2ccccc2cc1C(=O)Nc1cccc(OC)c1 [Compound 116],> 20
12,CCCC(=O)Oc1cc2ccccc2cc1C(=O)Nc1ccc(-c2cnco2)c(OC)c1 [Compound 114],< 10
13,COc1ccccc1C(=O)Nc1cc2ccccc2cc1O [Compound 139],< 10
14,CCOc1cccc(NC(=O)c2cc3ccccc3cc2O)c1 [Compound 168],10 to 20
15,COc1ccccc1NC(=O)c1cc2cc(Br)ccc2cc1OC(C)=O [Compound 104],10 to 20
16,COc1ccc(S(=O)(=O)C(F)F)cc1NC(=O)c1cc2ccccc2cc1O [Compound 160],10 to 20
17,COc1ccccc1NC(=O)c1ccc2ccccc2c1 [Compound 110],10 to 20
18,Cc1cccc(NC(=O)c2cc3ccccc3cc2O)c1 [Compound 122],10 to 20
19,N#Cc1ccccc1NC(=O)c1cc2ccccc2cc1O [Compound 144],10 to 20
20,COc1ccccc1NC(=O)c1cc2ccccc2cc1NC(=O)C(F)(F)F [Compound 137],10 to 20
21,COc1cc(NC(=O)c2cc3ccccc3cc2O)ccc1C#N [Compound 125],10 to 20
22,COc1ccccc1NC(=O)c1cc2ccccc2cc1OC(=O)c1ccccc1 [Compound 111],< 10
23,COc1ccccc1NC(=O)c1ccc2c(c1)OCO2 [Compound 134],10 to 20

# Now from value to compound:
row,Ki [µM],Structure (SMILES)
1,10 to 20,O=S(=O)(Nc1ccc(-c2cnco2)cc1)c1ccccc1 [Compound 301]
2,10 to 20,COc1ccc(OC)c(S(=O)(=O)Nc2ccc(C#N)cc2)c1 [Compound 310]
3,> 20,Cc1ccc(C(=O)Nc2ccccc2O)c(O)c1 [Compound 199]
4,< 10,COc1cc(NC(=O)c2cc3ccccc3cc2O)c(OC)cc1Cl [Compound 170]
5,10 to 20,COc1ccccc1NS(=O)(=O)c1ccccc1O [Compound 322]
6,10 to 20,COc1ccc(OC)c(S(=O)(=O)Nc2cccc([N+](=O)[O-])c2)c1 [Compound 307]
7,< 10,COc1cc(Cl)c(C)cc1NC(=O)c1cc2ccccc2cc1O [Compound 181]
8,10 to 20,COc1ccc(OC)c(S(=O)(=O)Nc2ccc(-c3ncon3)cc2)c1 [Compound 316]
9,> 20,O=C(Nc1ccccc1O)c1cc2ccccc2cc1O [Compound 190]
10,< 10,COc1cc2c(cc1NC(=O)c1cc3ccccc3cc1O)oc1ccccc12 [Compound 172]
11,< 10,COc1cc(NC(=O)Cc2cccc(CNC(=O)O[C@H]3CCOC3)c2)ccc1-c1cnco1 [Compound 325]
12,< 10,CSc1ccc(NC(=O)c2cc3ccccc3cc2O)cc1 [Compound 175]
13,10 to 20,COc1ccc(NC(=O)c2cc3ccccc3cc2O)cc1OC [Compound 187]
14,> 20,O=C(Nc1ccccc1O)c1ccc2ccccc2c1O [Compound 192]
